US20050089509A1 (priority 2003, published 2005)
“And” between values parts separate entries of the source, which are not always exact repeats. Equal entries are not always repeated. Where two headings read alike, the source gives them in different places.

Experiments:
F. novicida [1] = assay type: cell-based, F. tularensis subsp. novicida
J774 cells = assay type: cell-based, murine
F. novicida [2] = tested on: F. novicida; design: species or system F. tularensis subsp. novicida; conditions: in vivo
F. novicida [3] = tested on: F. novicida; design: species or system F. tularensis subsp. novicida; conditions: in vivo; remark: listed apart in the source
F. novicida [4] = tested on: F. novicida; design: species or system F. tularensis subsp. novicida; conditions: in vivo; remark: listed apart in the source
[5] = mouse, in vivo
[6] = cited from earlier work

Substance | intracellular bacterial replication in macrophages (F. novicida [1]) | TNF-α increase (J774 cells) | survival (F. novicida [2]) [%] | survival / control of the disease (in words) (F. novicida [2]) | bacteria in the liver and spleen (F. novicida [3]) | bacteria recovered from the spleens (F. novicida [3]) | time to death (F. novicida [4]) | animals succumbed to the infection by day (F. novicida [2]) [days] | TNF-α detected (in words) (J774 cells) | toxicity [5] | efficacy of route of delivery ([5]; ip) | half-life in vivo [6] | toxicity ([6]; in vivo)
IFN-γ | markedly inhibited replication of bacteria | 9 fold and 18 fold |  |  |  |  |  |  |  |  |  |  | 
gentamicin |  |  | 17 | ineffective in controlling the disease |  |  |  |  |  |  |  |  | 
IL-12 | did not inhibit bacterial replication |  |  |  | marked reduction of bacteria | no bacteria recovered | significantly increased the time to death | ≤ 6 | very little TNF-α | no toxicity observed | most efficacious | longer sustainable half-life than IFN-γ | very little toxicity
